Assay: Active substance release from acrylate adhesive matrix into pig skin by Franz's cells, HPLC determination
Assay type: in vitro ADME
Text: The release of the active ingredients within the product is advantageously adjusted such that an effect can still be perceived even after a period of 2 days. The delayed effect of the active substances used is achieved here from combination of active substance content and auxiliaries. The release of the active substances can be controlled over a wide time range via the use of e.g. plasticizers and fillers. Examples of such systems are pain patches on the market that contain opiates such as fentanyl, which are applied over several days up to a week and ensure an absolutely uniform release of the active substance over the entire application time. For the determination of the release rate of vanillyl butyl ether (VBE) from e.g. acrylate compositions, it was incorporated into the adhesive compositions in an amount of 0.75% and the release was ascertained over the time in pig skin by means of Franz's cells. Determination of the released amounts into the full-thickness skin was then carried out by HPLC.
One possible measure to increase the active ingredient release is the use of solubilizers. […] For the two other additives, lower values were determined, meaning that decyl oleate (Cetiol V) in particular is a preferred solubilizer in the adhesive composition. […]

## CCCCCCCC/C=C\CCCCCCCC(=O)OCCCCCCCCCC [Cetiol V, decyl oleate]
  Effect of added solubilizer on released amount of VBE in pig skin: significant increase in the released amount of VBE
